Consider two molecules from patent publication US12325710B2, “Substituted 1,2,3,4,5,6-hexahydroazepino[4,5-b]indoles for treating brain disorders” (priority 2019, dated 2025).

The structures appear in SMILES notation. “Also recorded” adds a separate entry of the source. A value given as a limit tells only on which side of the number the result lay.

In data set [1] the test system is rat embryonic cortical neurons. Nature of the data set: Dendritogenesis (Sholl analysis) in cultured cortical neurons. Format: cell-based. The conditions noted are these: 1 h treatment followed by 71 h growth; compared to vehicle (VEH). The method, then:
Embryonic rat cortical neurons were treated for a short period of time (1 h) followed by a suitable growth period (71 h) to measure the psychoplastogenic effects of the compounds described herein. […] Therefore, the effects of ibogalogs 8-17 on dendritic growth was assessed.
Dendritogenesis Experiments. For the dendritogenesis experiments conducted using cultured cortical neurons, timed pregnant Sprague Dawley rats were obtained from Charles River Laboratories (Wilmington, MA). Full culturing, staining, and analysis details were performed as previously described. (Dunlap, L. et al., 2019)

Data set [2] has as its target T1, hERG channels expressed in HEK293 cells (Homo sapiens, UniProt Q12809).
T1 construct: expressed in transfected cells
Type of data set: cell-based. The conditions noted are these: relative to ibogaine. The method, then:
hERG Inhibition Studies. All experiments were conducted manually using an EPC-10 amplifier (HEKA, Lambrecht/Pfalz, Germany) at room temperature in the whole-cell mode of the patch-clamp technique. HEK-293 cells stably expressing hKv11.1 (hERG) under G418 selection were a generous gift from Craig January (University of Wisconsin, Madison). Cells were cultured in DMEM containing 10% fetal bovine serum, 2 mM glutamine, 1 mM sodium pyruvate, 100 U/mL penicillin, 100 μg/mL streptomycin, and […]. Before experiments, cells were cultured to 60-80% confluency and lifted using TrypLE and plated onto poly-L-lysine-coated coverslips. Patch pipettes were pulled from soda lime glass (micro-hematocrit tubes) and had resistances of 2-4 MO. For the external solution, normal sodium Ringer was used (160 mM NaCl, 4.5 mM KCl, 2 mM CaCl2, 1 mM MgCl2, 10 mM HEPES, pH 7.4 and 290-310 mOsm). The internal solution used was potassium fluoride with ATP (160 mM KF, 2 mM MgCl2, 10 mM EGTA, 10 mM HEPES, 4 mM NaATP, pH=7.2 and 300-320 mOsm). A 2-step pulse (applied every 10 sec) from −80 mV first to 40 mV for 2 sec and then to −60 mV for 4 sec, was used to elicit hERG currents. The percent reduction of tail current amplitude by the drugs was determined and data are shown as mean+/−SD. For all experiments, solutions of the drugs were prepared fresh from 10 mM stock solutions in DMSO. […]

For data set [3], the system named is larval zebrafish. Kind of data set: Larval zebrafish movement activity during a battery of light and acoustic stimuli. From the text: Stimuli applied over time are indicated under the heatmaps. Colors indicate bright LED light of respective colors, black traces represent the waveforms of acoustic stimuli, and gray vertical lines indicate physical tapping as secondary acoustic stimuli.
Response is […] proportional to classification accuracy; 0-20% indicates no ability and 100% indicates perfect classification. […] The solid line denotes the median and the shading denotes a 95th percentile confidence interval calculated by bootstrap. N=8 wells/condition (64 animals/condition).

In another data set the test system is zebrafish. Kind of data set: Zebrafish developmental toxicity assay. Type of data set: in vivo. The note with it: 100 μM; 2 and 5 dpf.
A further data set concerns the target human 5-HT2A receptors (Homo sapiens, UniProt P28223). Kind of data set: 5-HT2A Gq-mediated calcium flux functional assay (human). Format: cell-based. The method, then:
(§1) Serotonin and Opioid Receptor Functional Assays. Functional assay screens at 5-HT and opioid receptors were performed in parallel using the same compound dilutions and 384-well format high-throughput assay platforms. Assays assessed activity at all human isoforms of the receptors, except where noted for the mouse 5-HT2A receptor. Receptor constructs in pcDNA vectors were generated from the Presto-Tango GPCR library with minor modifications. All compounds were serially diluted in drug buffer (HBSS, 20 mM HEPES, pH 7.4 supplemented with 0.1% bovine serum albumin and 0.01% ascorbic acid) and dispensed into 384-well assay plates using a FLIPR^TETRA (Molecular Devices). Every plate included a positive control such as 5-HT (for all 5-HT receptors), DADLE (DOR), salvinorin A (KOR), and DAMGO (MOR). For measurements of 5-HT2A, 5-HT2B, and 5-HT2C Gq-mediated calcium flux function, HEK Flp-In 293 T-Rex stable cell lines (Invitrogen) were loaded with Fluo-4 dye for one hour, stimulated with compounds and read for baseline (0-10 seconds) and peak fold-over-basal fluorescence (5 minutes) at 25° C. on the FLIPR^TETRA. For measurement of 5-HT6 and 5-HT7a functional assays, Gs-mediated cAMP accumulation was detected using the split-luciferase GloSensor assay in HEKT cells measuring luminescence on a Microbeta Trilux (Perkin Elmer) with a 15 min drug incubation at 25° C. […]
For orientation: Calcium flux is commonly read through the fluorescence of an indicator in the cells.

For a further data set, the target named is mouse 5-HT2A receptors (Mus musculus, UniProt P35363). Kind of data set: 5-HT2A Gq-mediated calcium flux functional assay (mouse). Format: cell-based. As for the experimental part: as §1
mouse 5-HT2A receptors, sequence (P35363 whole entry, canonical isoform): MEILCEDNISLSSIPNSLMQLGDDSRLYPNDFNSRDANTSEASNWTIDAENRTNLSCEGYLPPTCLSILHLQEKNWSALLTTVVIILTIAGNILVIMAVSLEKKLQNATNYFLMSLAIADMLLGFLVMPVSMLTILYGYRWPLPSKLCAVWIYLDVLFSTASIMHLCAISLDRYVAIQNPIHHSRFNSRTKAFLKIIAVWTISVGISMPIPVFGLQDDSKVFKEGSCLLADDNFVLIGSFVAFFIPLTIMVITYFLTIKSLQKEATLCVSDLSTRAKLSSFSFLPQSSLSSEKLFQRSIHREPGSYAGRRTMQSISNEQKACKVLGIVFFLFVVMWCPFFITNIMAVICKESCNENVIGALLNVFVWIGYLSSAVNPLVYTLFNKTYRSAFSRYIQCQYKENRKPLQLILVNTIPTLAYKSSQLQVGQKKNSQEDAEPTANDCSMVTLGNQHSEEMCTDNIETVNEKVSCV
The target in a further data set is 5-HT2B receptors (Homo sapiens, UniProt P41595). Nature of the data set: 5-HT2B Gq-mediated calcium flux functional assay. Format: cell-based. As for the experimental part: Serotonin and Opioid Receptor Functional Assays. Functional assay screens at 5-HT and opioid receptors were performed in parallel using the same compound dilutions and 384-well format high-throughput assay platforms. Assays assessed activity at all human isoforms of the receptors, except where noted for the mouse 5-HT2A receptor. Receptor constructs in pcDNA vectors were generated from the Presto-Tango GPCR library with minor modifications. All compounds were serially diluted in drug buffer (HBSS, 20 mM HEPES, pH 7.4 supplemented with 0.1% bovine serum albumin and 0.01% ascorbic acid) and dispensed into 384-well assay plates using a FLIPR^TETRA (Molecular Devices). Every plate included a positive control such as 5-HT (for all 5-HT receptors), DADLE (DOR), salvinorin A (KOR), and DAMGO (MOR). For measurements of 5-HT2A, 5-HT2B, and 5-HT2C Gq-mediated calcium flux function, HEK Flp-In 293 T-Rex stable cell lines (Invitrogen) were loaded with Fluo-4 dye for one hour, stimulated with compounds and read for baseline (0-10 seconds) and peak fold-over-basal fluorescence (5 minutes) at 25° C. on the FLIPR^TETRA. For measurement of 5-HT6 and 5-HT7a functional assays, Gs-mediated cAMP accumulation was detected using the split-luciferase GloSensor assay in HEKT cells measuring luminescence on a Microbeta Trilux (Perkin Elmer) with a 15 min drug incubation at 25° C. For 5-HT1A, 5-HT1B, 5-HT1F, MOR, KOR, and DOR functional assays, Gi/o-mediated cAMP inhibition was measured using the split-luciferase GloSensor assay in HEKT cells, conducted similarly as above, but in combination with either 0.3 μM isoproterenol (5-HT1A, 5-HT1B, 5-HT1F) or 1 μM forskolin (MOR, KOR, and DOR) to stimulate endogenous cAMP accumulation. For measurement of 5-HT1D, 5-HT1E, 5-HT4, and 5-HT5A functional assays, β-arrestin2 recruitment was measured by the Tango assay utilizing HTLA cells expressing TEV fused-β-arrestin2, as described previously with minor modifications. […]
5-HT2B receptors, sequence (P41595 whole entry, canonical isoform): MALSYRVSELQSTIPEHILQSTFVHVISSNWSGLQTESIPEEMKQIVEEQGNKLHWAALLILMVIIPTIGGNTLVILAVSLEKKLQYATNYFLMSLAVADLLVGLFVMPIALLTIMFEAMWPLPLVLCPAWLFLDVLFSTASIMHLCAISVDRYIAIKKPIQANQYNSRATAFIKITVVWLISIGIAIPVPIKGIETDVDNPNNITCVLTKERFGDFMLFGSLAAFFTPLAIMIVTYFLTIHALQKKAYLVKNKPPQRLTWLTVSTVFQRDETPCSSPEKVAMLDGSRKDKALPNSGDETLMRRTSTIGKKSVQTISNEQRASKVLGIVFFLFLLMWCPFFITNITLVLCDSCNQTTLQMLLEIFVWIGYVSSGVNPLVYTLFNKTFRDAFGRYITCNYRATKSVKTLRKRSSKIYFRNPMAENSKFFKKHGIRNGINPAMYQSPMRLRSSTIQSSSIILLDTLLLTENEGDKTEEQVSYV

Data set [4] has as its system opioid receptors (MOR, KOR, DOR). Kind of data set: Opioid receptor functional assays (Gi/o-mediated cAMP inhibition). Type of data set: cell-based, human. As for the experimental part: as §1
Another data set addresses T2, 5-HT1A (Homo sapiens, UniProt P08908).
T2 construct: expressed in transfected cells; host or cells: HEKT cells (GloSensor cAMP assay)
T2 sequence (P08908 1-422): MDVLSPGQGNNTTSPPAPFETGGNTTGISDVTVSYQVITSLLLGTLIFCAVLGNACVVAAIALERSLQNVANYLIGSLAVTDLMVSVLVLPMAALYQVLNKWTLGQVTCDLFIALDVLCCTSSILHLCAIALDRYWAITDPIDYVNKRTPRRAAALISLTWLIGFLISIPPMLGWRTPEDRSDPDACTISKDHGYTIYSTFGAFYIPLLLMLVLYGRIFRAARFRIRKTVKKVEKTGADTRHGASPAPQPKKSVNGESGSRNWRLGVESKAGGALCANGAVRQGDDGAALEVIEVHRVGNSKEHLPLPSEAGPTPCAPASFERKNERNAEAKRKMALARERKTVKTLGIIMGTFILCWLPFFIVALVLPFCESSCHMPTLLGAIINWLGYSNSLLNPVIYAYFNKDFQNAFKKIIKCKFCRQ
Nature of the data set: 5-HT1A functional assay (Gi/o-mediated cAMP inhibition). Type of data set: cell-based. The method, then: as §1

The target in a further data set is T3, 5-HT2C (Homo sapiens, UniProt P28335).
T3 sequence (P28335 33-458): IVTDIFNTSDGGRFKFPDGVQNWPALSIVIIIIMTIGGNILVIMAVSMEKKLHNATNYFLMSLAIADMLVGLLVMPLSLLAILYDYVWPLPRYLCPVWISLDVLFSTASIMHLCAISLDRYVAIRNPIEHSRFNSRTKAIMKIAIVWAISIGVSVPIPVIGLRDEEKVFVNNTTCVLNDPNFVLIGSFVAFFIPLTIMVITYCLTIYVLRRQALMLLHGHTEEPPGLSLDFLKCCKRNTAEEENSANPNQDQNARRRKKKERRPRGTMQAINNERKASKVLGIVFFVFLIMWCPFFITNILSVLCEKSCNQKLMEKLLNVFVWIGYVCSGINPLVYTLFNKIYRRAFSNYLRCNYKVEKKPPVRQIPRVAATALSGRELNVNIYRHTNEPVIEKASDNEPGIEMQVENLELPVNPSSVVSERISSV
Nature of the data set: 5-HT2C Gq-mediated calcium flux functional assay. Format: cell-based. The method, then: as §1

Data set [5] in a line: Solubility in 0.9% saline. The conditions noted are these: saline or isotonic.
The next data set concerns C57BL/6J mice. Nature of the data set: Head-twitch response (HTR) assay. The conditions noted are these: intraperitoneal; fumarate salts; 5-MeO-DMT 10 mg/kg as positive control.
Data set [6] relates to larval zebrafish. Kind of data set: Heart rate and arrhythmia in immobilized larval zebrafish.
For the next data set, the system named is C57/BL6J mice. Kind of data set: Forced swim test (FST). The conditions noted are these: 24 h after drug administration; TBG 50 mg/kg, ketamine 3 mg/kg i.p. Type of data set: in vivo, mouse. The method, then:
Forced Swim Test (FST). Male C57/BL6J mice (9-10 weeks old at time of experiment, n=10 per condition) were obtained from the Jackson Lab and housed 4-5 mice/cage in a UCD vivarium following an IACUC approved protocol. After 1 week in the vivarium each mouse was handled for approximately 1 minute by a experimenter for 3 consecutive days leading up to the first FST. All experiments were carried out by the same experimenter who performed handling. During the FST, mice underwent a 6 min swim session in a clear Plexiglas cylinder 40 cm tall, 20 cm in diameter, and filled with 30 cm of 24±1° C. water. Fresh water was used for every mouse. After handling and habituation to the experimenter, drug-naïve mice first underwent a pretest swim to more reliably induce a depressive phenotype in the subsequent FST sessions. Immobility scores for all mice were determined after the pre-test and mice were randomly assigned to treatment groups to generate groups with similar average immobility scores to be used for the following two FST sessions. […] Experiments were video-recorded and manually scored offline. Immobility time—defined as passive floating or remaining motionless with no activity other than that needed to keep the mouse's head above water—was scored for the last 4 min of the 6 min trial.

T1 sequence (Q12809 whole entry): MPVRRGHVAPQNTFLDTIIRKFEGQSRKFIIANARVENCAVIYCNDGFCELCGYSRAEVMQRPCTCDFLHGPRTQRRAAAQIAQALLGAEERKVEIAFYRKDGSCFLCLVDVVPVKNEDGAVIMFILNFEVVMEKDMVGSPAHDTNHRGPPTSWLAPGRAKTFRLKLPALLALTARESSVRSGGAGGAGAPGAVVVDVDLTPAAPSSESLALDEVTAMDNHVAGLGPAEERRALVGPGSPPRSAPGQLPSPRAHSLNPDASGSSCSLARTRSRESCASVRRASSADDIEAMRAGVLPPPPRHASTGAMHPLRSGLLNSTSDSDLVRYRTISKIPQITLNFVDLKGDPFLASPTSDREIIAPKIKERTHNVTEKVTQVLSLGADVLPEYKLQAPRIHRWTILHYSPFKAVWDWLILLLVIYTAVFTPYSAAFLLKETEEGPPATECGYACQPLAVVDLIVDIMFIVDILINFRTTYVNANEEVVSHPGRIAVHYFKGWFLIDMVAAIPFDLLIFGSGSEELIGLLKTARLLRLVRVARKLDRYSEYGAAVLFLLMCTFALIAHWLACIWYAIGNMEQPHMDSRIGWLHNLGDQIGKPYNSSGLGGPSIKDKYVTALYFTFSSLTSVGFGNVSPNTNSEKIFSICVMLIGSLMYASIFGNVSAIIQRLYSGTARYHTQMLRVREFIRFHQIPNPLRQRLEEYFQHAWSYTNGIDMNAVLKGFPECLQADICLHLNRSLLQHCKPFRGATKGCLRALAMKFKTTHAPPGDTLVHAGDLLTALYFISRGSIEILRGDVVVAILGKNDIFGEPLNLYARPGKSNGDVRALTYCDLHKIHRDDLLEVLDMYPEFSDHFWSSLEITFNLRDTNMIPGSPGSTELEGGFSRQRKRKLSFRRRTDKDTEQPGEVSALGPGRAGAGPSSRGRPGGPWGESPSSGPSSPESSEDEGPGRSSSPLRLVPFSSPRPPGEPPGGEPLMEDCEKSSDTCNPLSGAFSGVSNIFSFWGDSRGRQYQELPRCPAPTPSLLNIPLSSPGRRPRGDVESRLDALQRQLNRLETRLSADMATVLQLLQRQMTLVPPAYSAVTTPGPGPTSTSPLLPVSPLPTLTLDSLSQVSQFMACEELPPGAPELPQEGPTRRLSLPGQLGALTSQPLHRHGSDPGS
human 5-HT2A receptors, sequence (P28223 whole entry, canonical isoform): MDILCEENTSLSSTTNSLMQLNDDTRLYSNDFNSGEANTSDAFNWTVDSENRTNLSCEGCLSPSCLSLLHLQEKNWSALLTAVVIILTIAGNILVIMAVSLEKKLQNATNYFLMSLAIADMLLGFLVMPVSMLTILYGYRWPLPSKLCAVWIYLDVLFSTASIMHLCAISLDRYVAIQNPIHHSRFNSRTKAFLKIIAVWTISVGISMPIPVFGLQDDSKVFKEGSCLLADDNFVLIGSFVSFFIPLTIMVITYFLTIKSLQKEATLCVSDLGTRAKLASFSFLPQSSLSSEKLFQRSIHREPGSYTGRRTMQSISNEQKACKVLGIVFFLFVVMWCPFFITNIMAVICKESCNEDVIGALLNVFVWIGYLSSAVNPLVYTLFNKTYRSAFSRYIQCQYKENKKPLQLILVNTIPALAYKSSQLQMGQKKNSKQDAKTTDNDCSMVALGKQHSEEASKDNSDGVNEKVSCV

In the case of `COc1ccc2[nH]c3c(c2c1)CCN(C)CC3` [IBG], the “psychoplastogenic effect on dendritic growth (Sholl analysis)” value in data set [1] is on record as “performed comparably to ibogaine”. Further, the “fold less potent than ibogaine at hERG” value in data set [2] is “approximately 10 fold”. The “behavioral phenotype at highest concentration versus lethal control” value with larval zebrafish [3] (200 μM) is “did not produce this phenotype”. Further, the “behavioral phenotype with increasing concentration versus vehicle and lethal control (eugenol, 100 μM)” value in the data set on larval zebrafish [3] (1 h treatment, concentration-response) is “do not produce movement responses in larval zebrafish similar to a lethal concentration of eugenol”. Moreover, the “machine learning classification of movement responses” value in the data set with larval zebrafish [3] (highest concentrations (200 μM)) is given as “more similar to vehicle controls than to ibogaine, noribogaine, or lethal controls”. In the data set with zebrafish, the “malformations, mortality, non-viable fish” value was “significantly fewer non-viable fish than ibogaine or noribogaine treatments”. In addition, at human 5-HT2A receptors, the “agonist activity at human 5-HT2A receptors” value is on record as “potent agonist activity”. Also, the “agonist activity at mouse 5-HT2A receptors” value on mouse 5-HT2A receptors is on record as “potent agonist activity”. Moreover, the “activity mode at 5-HT2B receptors” value at 5-HT2B receptors is “antagonists”. Also, in [4], the opioid agonist activity entry is given as “weak or no opioid agonist activity”. The “5-HT1A agonist activity compared to 5-MeO-DMT” value at 5-HT1A is “weaker 5-HT1A and 5-HT2C agonist activity”. Further, the “5-HT2C agonist activity compared to 5-MeO-DMT” value on 5-HT2C was “weaker 5-HT1A and 5-HT2C agonist activity”. The solubility – broadly, the concentration that dissolves in the medium under given conditions – in [5] was at least 40 mg/mL. The “hallucinogenic potential (head-twitch response)” value in the data set on C57BL/6J mice is reported as “significantly reduced hallucinogenic potential”. In the data set on larval zebrafish [6], the “heart rate (bradycardia)” value was “Neither IBG nor TBG induced these undesirable phenotypes; also recorded: do not induce bradycardia” and the “likelihood of arrhythmias (ratio of atrium to ventricle BPM)” value is “Neither IBG nor TBG induced these undesirable phenotypes”.

For the molecule `CNC1(c2ccccc2Cl)CCCCC1=O` (centres unmarked) [ketamine, reference compound], the “immobility in FST” value in the data set with C57/BL6J mice is on record as “significantly reduced immobility”.
